Experiments:
[1] = biological target: T1, ttCMPK (CMP kinase of Thermus thermophilus HB8) (Thermus thermophilus, UniProt Q5SL35); experiment: X-ray crystal structure of the ternary complex (crystal soaked with CMP, ATP and GdCl3); format: binding; conditions: with CDP and Gd3+; 1.6 A, closed form; phosphoryl donor site
T1 construct: gene cmk; full-length, expressed from pET-11a (NdeI/BamHI) in E. coli BL21(DE3), no tag mentioned; SeMet-labelled protein for the CMP open form; residue numbers up to 209
T1 sequence (Q5SL35 1-208): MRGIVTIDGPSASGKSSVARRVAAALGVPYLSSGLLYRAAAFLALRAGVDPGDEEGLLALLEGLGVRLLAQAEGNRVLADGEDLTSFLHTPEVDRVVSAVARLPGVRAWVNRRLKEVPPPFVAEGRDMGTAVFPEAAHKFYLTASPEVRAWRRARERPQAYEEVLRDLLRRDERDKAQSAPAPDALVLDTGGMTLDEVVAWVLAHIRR

[2] = biological target: T1, ttCMPK (CMP kinase of Thermus thermophilus HB8); experiment: X-ray crystal structure of the complex (co-crystallisation); format: binding; conditions: closed form 1.5 A (3AKE; AMP-PCP and MgCl2 in drop, no AMP-PCP density); open form 2.2 A (3W8N; SeMet protein, MgCl2); phosphoryl acceptor site

Structure (SMILES)	X-ray crystal structure of the ternary complex (crystal soaked with CMP, ATP and) [1]	X-ray crystal structure of the complex (co-crystallisation) [2]
Nc1ncnc2c1ncn2[C@@H]1O[C@H](COP(=O)(O)OP(=O)(O)O)[C@@H](O)[C@H]1O [ADP]	ADP is recognized by several residues from both the CORE and LID domains	
Nc1ccn([C@@H]2O[C@H](COP(=O)(O)O)[C@@H](O)[C@H]2O)c(=O)n1 [CMP]		3W8N (CMP "open" complex), 3AKE (CMP "closed" complex)

Source: publication PMC7259600, “The crystal structures of Thermus thermophilus CMP kinase complexed with a phosphoryl group acceptor and donor” (PLoS ONE, 2020)
